We go through two compounds from patent US12503485B2, “Human aminosterol ENT-03 compounds, related compositions comprising the same, and methods of using the same” (Enterin, Inc., priority 2019, dated 2025).

“And” between values parts separate entries of the source, which are not always exact repeats. Identical values can stand only once.

One data set has as its target T1, PTPN12/PTP-PEST (Homo sapiens, UniProt Q05209).
T1 construct: purchased Recation Biology Inc
The data set is described as follows: Phosphatase assay PTPN12/PTP-PEST. It counts as biochemical.

A short description of data set [1]: Pharmacokinetic study, intravenous administration in male SD rats. In kind it is in vivo. The following applies: rat plasma, I.V. 5 mg/kg. How it is done: The objective of this example was to determine the pharmacokinetic profile of ENT-03 (Compound III) via intravenous and oral administration in male SD Rats.
Animal feeding control: Animals were food fasted overnight prior to dosing and fed 4 hours after administration having free access to water.
PK Sample Analyses: Concentrations of ENT-03 (Compound III) in the plasma and dose samples were analyzed using a LC-MS/MS method. WinNonlin (Phoenix™, version 6.1) or other similar software was used for pharmacokinetic calculations. The following pharmacokinetic parameters were calculated, whenever possible from the plasma concentration versus time data.
IV Bolus administration: T1/2, C0, AUClast, AUCinf, MRTinf, Cl, Vss, Number of Points for Regression.

A short description of data set [2]: Body weight of mice after i.p. deuterated ENT-03. In kind it is in vivo. From the text:
The presence of the deuterium on the side chain likely slows the action of the 2-methylacyl-coenzyme A racemase on C-25, the subsequent action of the dehydrogenase that produces the 24,25-trans-unsaturated derivative by removing the deuterium atoms at C24 and C25, and the subsequent hydration and oxidation at the C24 bond catalyzed by the D-bifunctional protein. Instead, the metabolism of ENT-03D3 will begin with the oxidation at C24 by CYP46A1, yielding the following compound: […]

The mark [3] stands for this setting: individual animals Rat 1-3, listed as ENT-03 (Compound III), 5 mg/kg.

T1 sequence (Q05209 whole entry): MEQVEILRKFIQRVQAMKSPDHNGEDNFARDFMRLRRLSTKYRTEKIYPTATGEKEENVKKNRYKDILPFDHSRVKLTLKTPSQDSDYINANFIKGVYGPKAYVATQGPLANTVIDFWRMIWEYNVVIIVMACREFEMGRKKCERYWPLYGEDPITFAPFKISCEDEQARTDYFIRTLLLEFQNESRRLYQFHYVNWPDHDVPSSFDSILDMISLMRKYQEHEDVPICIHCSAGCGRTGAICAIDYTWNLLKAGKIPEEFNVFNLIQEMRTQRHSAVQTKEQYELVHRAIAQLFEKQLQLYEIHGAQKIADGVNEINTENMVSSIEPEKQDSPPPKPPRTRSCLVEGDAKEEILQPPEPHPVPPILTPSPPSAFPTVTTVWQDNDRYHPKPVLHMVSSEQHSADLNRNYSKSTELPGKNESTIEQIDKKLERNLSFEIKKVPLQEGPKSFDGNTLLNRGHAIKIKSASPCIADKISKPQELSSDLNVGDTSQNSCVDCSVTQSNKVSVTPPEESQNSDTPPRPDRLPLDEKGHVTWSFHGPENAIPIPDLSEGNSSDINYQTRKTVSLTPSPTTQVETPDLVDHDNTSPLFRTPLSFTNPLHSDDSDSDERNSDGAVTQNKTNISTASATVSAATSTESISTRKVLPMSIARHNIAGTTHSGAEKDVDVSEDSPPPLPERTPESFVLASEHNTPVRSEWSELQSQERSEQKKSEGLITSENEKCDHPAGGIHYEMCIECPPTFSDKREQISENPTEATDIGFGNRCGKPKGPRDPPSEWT

Take `CC(C)[C@@H](CC[C@@H](C)[C@H]1CC[C@H]2[C@@H]3[C@H](O)C[C@H]4C[C@@H](NCCCNCCCCNCCCN)CC[C@]4(C)[C@H]3CC[C@]12C)OS(=O)(=O)O` (single isomer, unassigned) [ENT-02, trodusquemine]: at PTPN12/PTP-PEST, the “activity on PTPN12/PTP-PEST, in words” value is listed as “target”.
On to `CC(CCCC(C)C1CCC2C3C(O)CC4CC(NCCCNCCCCNCCCN)CCC4(C)C3CCC12C)C(=O)O` (single isomer, unassigned; ent-03) [ENT-03, 3-β-Spermino-7α-hydroxy-5α-cholestanoic acid], for which, in data set [1] (Mean of 3 male SD rats), the AUClInf came out at 986.457 µg·h/mL, the AUClast worked out at 609.005 µg·h/mL, the “AUC—%Extrap—obs” value was determined as 38.2% and the C0 is 86.337 µg/mL. In data set [1] (Mean of 3 male SD rats), the Cl_obs is 5.1 mL/h/kg, the “MRTInf—obs” value is recorded as 24.6 h, the T1/2 was 18.2 h and the “Vss—obs” value came out at 0.125 L/kg. Moreover, in data set [1] (setting [3]), the AUClInf is 922.477 µg·h/mL and 941.13 µg·h/mL and 1095.763 µg·h/mL; the AUClast is 557.542 µg·h/mL and 608.321 µg·h/mL and 661.154 µg·h/mL; the “AUC—%Extrap—obs” value was 39.6% and 35.4% and 39.7%; the C0 is 80.402 µg/mL and 102.409 µg/mL and 76.2 µg/mL. In data set [1] (setting [3]), the Cl_obs is 5.42 mL/h/kg and 5.31 mL/h/kg and 4.57 mL/h/kg; the “MRTInf—obs” value was 25.3 h and 22.9 h and 25.5 h; the T1/2 was 18.6 h (2×) and 17.5 h; the “Vss—obs” value was 0.137 L/kg and 0.122 L/kg and 0.116 L/kg. The “effect on body weight, in words” value in data set [2] was “loss of weight”.
